Results published in ChEMBL document CHEMBL1201862, “PubChem BioAssay data set” (2004).
Calls of active or inactive are those of the source.

Tests used:
[1] = molecular target: T1, Sentrin-specific protease 1 (Homo sapiens, UniProt Q9P0U3); experiment: Dose response confirmation of small molecule inhibitors of the catalytic domain of the SUMO protease, SENP1 in a FRET assay.; format: functional; conditions: read-out: IC50_Mean
[2] = molecular target: T1, Sentrin-specific protease 1; experiment: potency of human SENP1 inhibitors, dose response, biochemical, kinetic FRET (AID 651697); format: functional; conditions: read-out: IC50_Mean
[3] = molecular target: Nuclear receptor subfamily 5 group A member 2 (Homo sapiens, UniProt O00482); format: functional, cell-based;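 also: HEK293T cells transfected with LRH-1 and a StAR promoter luciferase reporter; potency for inhibitors that lower LRH-1 driven reporter light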
[4] = molecular target: Steroidogenic factor 1 (Homo sapiens, UniProt Q13285); experiment: Counterscreen for inverse agonists of the liver receptor homolog-1 (LRH-1; NR5A2): Luminescence-based cell-based high throughput dose response assay to identify inverse agonists of the Steroidogenic Factor 1 Nuclear Receptor (SF1; NR5A1).; format: functional
[5] = StAR promoter reporter inhibition counter-screen, dose response, counter-screen for LRH-1 inverse agonist project, cell-based, luminescence, luciferase reporter (AID 651969); format: functional
[6] = molecular target: Arf-GAP with SH3 domain, ANK repeat and PH domain-containing protein 1 (Homo sapiens, UniProt Q9ULH1); format: functional;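 also: biochemical fluorescence polarization dose–response screen measuring inhibition of ASAP1; ASAP1 GAP domain stimulating GTP hydrolysis by truncated human ARF1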
[7] = molecular target: Broad substrate specificity ATP-binding cassette transporter ABCG2 (Homo sapiens, UniProt Q9UNQ0); experiment: ABCG2 efflux pump inhibitors, dose response, Ig-MXP3 cells, flow cytometry (AID 1690); format: functional
[8] = molecular target: T2, Rac GTPase-activating protein 1 (Homo sapiens, UniProt Q9H0H5); experiment: MgcRacGAP GTPase-activating activity inhibitors, confirmation, biochemical, ADP Hunter fluorescence, primary and confirmatory (AID 624330); format: functional
T2 sequence (Q9H0H5 whole entry): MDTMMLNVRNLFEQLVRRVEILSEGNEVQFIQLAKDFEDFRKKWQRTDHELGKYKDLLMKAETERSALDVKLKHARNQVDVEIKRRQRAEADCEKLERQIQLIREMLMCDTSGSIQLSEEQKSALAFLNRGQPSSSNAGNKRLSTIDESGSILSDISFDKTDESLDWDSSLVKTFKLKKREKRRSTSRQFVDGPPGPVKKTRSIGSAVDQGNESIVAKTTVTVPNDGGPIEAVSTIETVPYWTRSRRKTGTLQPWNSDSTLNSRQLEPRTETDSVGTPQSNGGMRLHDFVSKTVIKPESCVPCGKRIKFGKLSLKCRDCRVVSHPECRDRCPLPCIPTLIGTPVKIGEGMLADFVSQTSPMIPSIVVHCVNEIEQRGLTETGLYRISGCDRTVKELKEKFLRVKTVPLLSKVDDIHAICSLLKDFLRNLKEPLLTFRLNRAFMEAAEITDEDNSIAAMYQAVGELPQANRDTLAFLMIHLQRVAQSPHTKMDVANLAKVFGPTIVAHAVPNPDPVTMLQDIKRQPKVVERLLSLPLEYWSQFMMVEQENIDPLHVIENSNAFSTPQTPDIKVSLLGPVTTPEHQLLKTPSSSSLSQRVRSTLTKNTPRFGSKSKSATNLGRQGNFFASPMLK

[9] = molecular target: ATP-dependent translocase ABCB1 (Homo sapiens, UniProt P08183); experiment: ABCB1 efflux pump inhibitor potency, dose response, Jurkat-DNR cells, JC-1, flow cytometry (AID 1689); format: functional
[10] = test system: A549; experiment: A549 cell toxicity, dose response, cytotoxicity control, plate reader, cherry-pick samples (AID 687028); format: functional, cell-based; conditions: Homo sapiens
[11] = molecular target: T3, Scavenger receptor class B member 1 (Mus musculus, UniProt Q61009); experiment: inhibitors of SR-BI dependent HDL uptake, dose response, ldlA[mSR-BI] CHO cells, fluorescence plate reader, dry powder, set 9 (AID 623880); format: functional, cell-based
T3 sequence (Q61009 whole entry): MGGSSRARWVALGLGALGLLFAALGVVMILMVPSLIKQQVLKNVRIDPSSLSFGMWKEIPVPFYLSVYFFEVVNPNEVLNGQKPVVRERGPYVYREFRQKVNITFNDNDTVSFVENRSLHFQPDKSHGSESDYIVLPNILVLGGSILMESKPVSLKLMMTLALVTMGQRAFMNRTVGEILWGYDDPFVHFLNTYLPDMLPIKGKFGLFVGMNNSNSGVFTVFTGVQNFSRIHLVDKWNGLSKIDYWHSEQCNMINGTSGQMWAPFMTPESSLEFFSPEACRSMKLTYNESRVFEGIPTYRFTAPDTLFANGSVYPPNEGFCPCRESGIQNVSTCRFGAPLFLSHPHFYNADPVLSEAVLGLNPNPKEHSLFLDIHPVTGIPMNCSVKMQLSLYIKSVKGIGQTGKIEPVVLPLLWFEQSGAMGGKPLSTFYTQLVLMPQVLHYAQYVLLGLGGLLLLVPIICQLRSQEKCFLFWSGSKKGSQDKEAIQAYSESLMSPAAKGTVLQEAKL

[12] = molecular target: T3, Scavenger receptor class B member 1; experiment: inhibitors of SR-BI-mediated HDL uptake, dose response, cell-based, ldlA[mSR-BI] CHO, DiI fluorescence, dry powder, set 10 (AID 624029); format: functional

T1 sequence (Q9P0U3 whole entry, the tested form may be a part): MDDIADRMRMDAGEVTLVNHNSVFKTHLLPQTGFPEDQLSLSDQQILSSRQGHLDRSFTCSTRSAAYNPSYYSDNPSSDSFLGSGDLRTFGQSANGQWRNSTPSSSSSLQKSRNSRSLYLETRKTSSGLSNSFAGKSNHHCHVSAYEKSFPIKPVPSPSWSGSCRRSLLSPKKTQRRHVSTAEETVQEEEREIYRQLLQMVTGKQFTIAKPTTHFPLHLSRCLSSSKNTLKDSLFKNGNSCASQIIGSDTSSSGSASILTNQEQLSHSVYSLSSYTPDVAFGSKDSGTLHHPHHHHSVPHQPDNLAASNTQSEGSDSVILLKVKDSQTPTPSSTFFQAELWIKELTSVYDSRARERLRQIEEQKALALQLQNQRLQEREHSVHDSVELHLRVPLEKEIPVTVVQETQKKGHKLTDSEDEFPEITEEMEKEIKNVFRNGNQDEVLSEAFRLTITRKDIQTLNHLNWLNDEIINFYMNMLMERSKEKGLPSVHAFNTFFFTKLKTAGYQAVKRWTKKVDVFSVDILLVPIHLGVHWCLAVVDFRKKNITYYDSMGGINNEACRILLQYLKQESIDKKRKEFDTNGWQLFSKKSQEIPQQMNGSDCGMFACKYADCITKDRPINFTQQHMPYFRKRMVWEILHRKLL
Chain of Nuclear receptor subfamily 5 group A member 2 (O00482 whole entry): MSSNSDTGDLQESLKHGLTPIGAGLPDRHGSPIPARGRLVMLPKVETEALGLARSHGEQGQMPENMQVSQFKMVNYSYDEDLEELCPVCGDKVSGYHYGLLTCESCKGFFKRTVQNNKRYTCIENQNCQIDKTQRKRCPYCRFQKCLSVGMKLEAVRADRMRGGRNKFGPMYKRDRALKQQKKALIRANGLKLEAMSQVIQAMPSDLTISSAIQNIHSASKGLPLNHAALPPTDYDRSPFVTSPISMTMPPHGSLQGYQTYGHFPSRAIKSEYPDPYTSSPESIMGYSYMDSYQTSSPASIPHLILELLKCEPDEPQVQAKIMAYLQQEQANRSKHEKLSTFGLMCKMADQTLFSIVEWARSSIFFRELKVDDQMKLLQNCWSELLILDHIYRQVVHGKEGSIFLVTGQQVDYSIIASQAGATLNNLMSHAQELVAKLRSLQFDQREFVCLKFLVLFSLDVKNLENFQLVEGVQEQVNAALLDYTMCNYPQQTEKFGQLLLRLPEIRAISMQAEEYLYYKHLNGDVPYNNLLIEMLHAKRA
Chain of ATP-dependent translocase ABCB1 (P08183 whole entry): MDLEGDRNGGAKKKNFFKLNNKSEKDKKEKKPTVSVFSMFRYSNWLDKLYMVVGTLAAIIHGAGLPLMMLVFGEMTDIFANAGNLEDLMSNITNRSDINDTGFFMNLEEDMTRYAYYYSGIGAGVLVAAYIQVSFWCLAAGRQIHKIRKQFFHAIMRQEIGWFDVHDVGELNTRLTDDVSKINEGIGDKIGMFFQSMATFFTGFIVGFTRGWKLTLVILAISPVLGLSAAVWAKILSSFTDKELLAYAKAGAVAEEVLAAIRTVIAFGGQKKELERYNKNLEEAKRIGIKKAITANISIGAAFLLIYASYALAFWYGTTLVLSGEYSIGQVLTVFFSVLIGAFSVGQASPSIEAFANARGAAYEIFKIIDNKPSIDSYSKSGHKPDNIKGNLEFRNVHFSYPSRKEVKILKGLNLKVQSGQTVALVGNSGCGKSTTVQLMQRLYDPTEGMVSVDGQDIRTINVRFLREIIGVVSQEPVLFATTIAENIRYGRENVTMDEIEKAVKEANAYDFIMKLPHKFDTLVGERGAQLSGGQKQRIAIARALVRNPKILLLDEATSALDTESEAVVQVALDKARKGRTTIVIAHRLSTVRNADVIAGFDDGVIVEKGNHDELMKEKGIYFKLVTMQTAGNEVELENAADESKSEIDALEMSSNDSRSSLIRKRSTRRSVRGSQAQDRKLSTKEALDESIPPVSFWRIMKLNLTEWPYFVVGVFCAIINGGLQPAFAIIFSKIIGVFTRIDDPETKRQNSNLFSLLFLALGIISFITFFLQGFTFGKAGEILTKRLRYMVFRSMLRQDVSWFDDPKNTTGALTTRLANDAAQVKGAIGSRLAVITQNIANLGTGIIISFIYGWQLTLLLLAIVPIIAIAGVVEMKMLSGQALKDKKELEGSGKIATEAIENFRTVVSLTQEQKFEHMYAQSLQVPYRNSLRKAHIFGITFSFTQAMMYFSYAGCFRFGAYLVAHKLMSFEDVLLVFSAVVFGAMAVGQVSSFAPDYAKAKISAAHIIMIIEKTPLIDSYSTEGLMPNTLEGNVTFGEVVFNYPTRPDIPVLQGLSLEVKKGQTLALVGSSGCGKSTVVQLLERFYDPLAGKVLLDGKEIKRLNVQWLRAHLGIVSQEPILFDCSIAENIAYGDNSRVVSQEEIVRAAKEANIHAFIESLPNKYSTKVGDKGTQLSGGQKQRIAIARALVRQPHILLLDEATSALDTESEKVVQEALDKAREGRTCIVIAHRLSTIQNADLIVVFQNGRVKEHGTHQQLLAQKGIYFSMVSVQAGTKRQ
Chain of Broad substrate specificity ATP-binding cassette transporter ABCG2 (Q9UNQ0 whole entry): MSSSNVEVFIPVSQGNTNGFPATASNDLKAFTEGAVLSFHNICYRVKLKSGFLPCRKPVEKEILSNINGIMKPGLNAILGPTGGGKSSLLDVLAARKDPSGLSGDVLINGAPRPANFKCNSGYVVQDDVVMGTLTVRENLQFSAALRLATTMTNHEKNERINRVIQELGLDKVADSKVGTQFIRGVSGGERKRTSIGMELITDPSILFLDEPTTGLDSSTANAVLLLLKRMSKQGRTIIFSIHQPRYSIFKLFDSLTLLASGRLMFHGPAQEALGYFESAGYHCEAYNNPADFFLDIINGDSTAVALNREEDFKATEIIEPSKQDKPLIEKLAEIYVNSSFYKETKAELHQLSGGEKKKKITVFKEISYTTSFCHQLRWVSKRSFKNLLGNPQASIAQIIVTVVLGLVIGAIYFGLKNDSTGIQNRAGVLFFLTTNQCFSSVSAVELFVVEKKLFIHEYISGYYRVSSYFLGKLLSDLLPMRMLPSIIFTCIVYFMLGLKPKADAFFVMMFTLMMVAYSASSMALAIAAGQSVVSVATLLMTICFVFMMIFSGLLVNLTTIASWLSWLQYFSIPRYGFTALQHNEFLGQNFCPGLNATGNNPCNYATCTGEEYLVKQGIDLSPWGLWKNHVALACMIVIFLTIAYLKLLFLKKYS
Chain of Steroidogenic factor 1 (Q13285 whole entry): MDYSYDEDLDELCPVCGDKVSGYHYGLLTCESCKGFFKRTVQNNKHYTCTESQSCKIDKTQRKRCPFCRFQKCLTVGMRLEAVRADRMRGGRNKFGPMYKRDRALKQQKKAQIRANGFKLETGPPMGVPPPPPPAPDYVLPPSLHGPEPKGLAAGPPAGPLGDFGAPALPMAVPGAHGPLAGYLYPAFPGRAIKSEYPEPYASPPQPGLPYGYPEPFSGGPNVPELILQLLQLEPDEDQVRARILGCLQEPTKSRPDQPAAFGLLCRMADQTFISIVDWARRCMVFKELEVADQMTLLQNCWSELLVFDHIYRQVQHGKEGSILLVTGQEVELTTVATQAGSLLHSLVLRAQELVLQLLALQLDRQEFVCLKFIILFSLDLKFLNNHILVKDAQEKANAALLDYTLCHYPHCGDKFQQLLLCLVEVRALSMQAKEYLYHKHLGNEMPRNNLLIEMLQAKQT
Chain of Arf-GAP with SH3 domain, ANK repeat and PH domain-containing protein 1 (Q9ULH1 whole entry, the tested form may be a part): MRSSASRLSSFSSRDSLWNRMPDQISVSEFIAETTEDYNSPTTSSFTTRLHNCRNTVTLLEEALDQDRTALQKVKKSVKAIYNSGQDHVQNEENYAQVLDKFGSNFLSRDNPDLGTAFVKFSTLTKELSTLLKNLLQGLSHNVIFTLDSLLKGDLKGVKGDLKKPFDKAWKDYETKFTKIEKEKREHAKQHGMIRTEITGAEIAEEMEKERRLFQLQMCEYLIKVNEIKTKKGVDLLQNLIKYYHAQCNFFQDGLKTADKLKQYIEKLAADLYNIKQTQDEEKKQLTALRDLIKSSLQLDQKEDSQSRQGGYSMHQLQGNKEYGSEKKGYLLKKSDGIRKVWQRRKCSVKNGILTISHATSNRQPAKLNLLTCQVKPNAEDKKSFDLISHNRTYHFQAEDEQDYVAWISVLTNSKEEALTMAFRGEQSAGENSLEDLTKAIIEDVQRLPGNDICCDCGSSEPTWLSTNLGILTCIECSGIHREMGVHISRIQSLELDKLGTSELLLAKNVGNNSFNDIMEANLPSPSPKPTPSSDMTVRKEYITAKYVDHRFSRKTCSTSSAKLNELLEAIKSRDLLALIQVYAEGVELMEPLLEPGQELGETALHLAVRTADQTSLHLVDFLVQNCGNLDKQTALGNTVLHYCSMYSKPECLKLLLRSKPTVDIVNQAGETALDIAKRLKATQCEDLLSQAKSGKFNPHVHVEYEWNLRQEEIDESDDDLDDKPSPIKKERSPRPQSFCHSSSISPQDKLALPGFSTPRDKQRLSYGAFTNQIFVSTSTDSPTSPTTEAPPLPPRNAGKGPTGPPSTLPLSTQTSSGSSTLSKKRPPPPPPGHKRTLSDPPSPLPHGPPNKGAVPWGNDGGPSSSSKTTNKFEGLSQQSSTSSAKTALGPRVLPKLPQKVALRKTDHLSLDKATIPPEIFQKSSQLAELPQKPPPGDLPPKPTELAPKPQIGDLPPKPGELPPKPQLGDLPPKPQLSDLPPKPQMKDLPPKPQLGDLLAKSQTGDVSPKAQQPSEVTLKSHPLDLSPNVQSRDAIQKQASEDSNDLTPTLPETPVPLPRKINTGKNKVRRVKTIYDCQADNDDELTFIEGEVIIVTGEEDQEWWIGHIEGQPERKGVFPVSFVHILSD

In the case of `O=C(NC[C@@H]1CCCO1)c1cccc2c1C(=O)c1ccc(N3CCOCC3)cc1S2(=O)=O`, the IC50 [1] is reported as 16.4 µM (active) and the IC50 [2] is reported as 12 µM (active).
With `COc1ccc(-n2c(N)c(C(=O)NCc3cccnc3)sc2=S)cc1` the IC50 [3] was 35.9 µM (inactive), the IC50 [4] was 5.22 µM (active) and the IC50 [5] was 35.9 µM (inactive).
With `COc1ccc(-n2nnc3c(=O)n(CC(=O)Nc4ccc5c(c4)OCCO5)cnc32)cc1OC` the IC50 [6] was 11.8 µM (inactive).
With `COc1cc(C(=O)N/N=C/c2ccc(OC)c(CN3CCN(c4ccc(F)cc4)CC3)c2)ccc1O` the EC50 [7] was 0.76 µM (inactive), the IC50 [8] was 83.3 µM (active) and the EC50 [9] was 0.165 µM (active).
With `COc1ccc2c3c([nH]c2c1)[C@H](CO)N(C(=O)c1ccccc1)CC31CN(S(=O)(=O)c2cccs2)C1` the AC50 [10] was 26 µM (active).
With `C[C@@H]1CN([C@H](C)CO)C(=O)c2cc(NC(=O)C3CCCCC3)ccc2O[C@H]1CN(C)S(=O)(=O)c1ccccc1Cl` the AC50 [11] was 0.176 µM (active) and the AC50 [12] was 0.202 µM (active).
